Reference: patent US7585875B2, “Substituted pyrazolo[1,5-a]pyridine compounds and their methods of use” (Avigen, Inc., priority 2006, dated 2009)
Where a name gives a salt, the structure may show the parent alone. Read-outs that look alike come from different tables or passages of the source.

Columns and labels:
[1] = system: mechanical allodynia after chronic constriction injury (CCI) to the sciatic nerve; test: Mechanical allodynia by response to von Frey fibers, rat chronic constriction injury (CCI) model; format: in vivo, male Sprague-Dawley rats; conditions: 2 hr post dosing
Text: Chronic Constriction Injury: Heat and cold allodynia responses as well as mechanical allodynia sensations can be evaluated as described below in rats having a chronic constriction injury (CCI). A unilateral mononeuropathy is produced in rats using the chronic constriction injury model described in Bennett et al., Pain (1988) 33:87-107. CCI is produced in anesthetized rats as follows. The lateral aspect of each rat's hind limb is shaved and scrubbed with Nolvasan. Using aseptic techniques, an incision is made on the lateral aspect of the hind limb at the mid-thigh level. The biceps femoris is bluntly dissected to expose the sciatic nerve. On the right hind limb of each rat, four loosely tied ligatures (for example, Chromic gut 4.0; Ethicon, Johnson and Johnson, Somerville, N.J.) are made around the sciatic nerve approximately 1-2 mm apart. On the left side of each rat, an identical dissection is performed except that the sciatic nerve is not ligated (sham). The muscle is closed with a continuous suture pattern with, e.g., 4-0 Vicryl (Johnson and Johnson, Somerville, N.J.) and the overlying skin is closed with wound clips. The rats are ear-tagged for identification purposes and returned to animal housing.
To induce allodynia, male Sprague-Dawley rats underwent chronic constriction injury (CCI) to the sciatic nerve as described by Bennett and Xie, Pain 1988; 33(1):87-107. The plantar surface of the hind paws was stimulated with von Frey filaments (Stoelting) to induce a withdrawal response by blinded personnel. The bending force of fiber required to induce a 50% withdrawal response was calculated following CCI surgery (pre-dosing baseline). N=5-6 allodynic rats received a single intraperitoneal administration of test compound or vehicle. Two hours post-dosing, 50% paw withdrawal threshold was determined again by blinded testers using von Frey filaments. The change in 50% withdrawal threshold relative to pre-dosing baseline is reported in Table 2 for various substituted pyrazolo[1,5-a]pyridine compounds of the invention.

[2] = biological target: phosphodiesterase (PDE) enzyme derived from bovine brain; test: Inhibition of PDE (PDELight kit, cAMP substrate); format: biochemical; conditions: PDE from brain extract, cAMP as substrate
Experimental: In a 96-well plate, phosphodiesterase (PDE) enzyme (0.5-1 mU/well) derived from bovine brain (Sigma) was combined with 5 uM cAMP substrate (Sigma). Test compounds (0-200 uM) or vehicle (0.5% DMSO) were added to the enzyme/substrate and incubated for 1 hour. Using a PDELight® kit (Cambrex), the amount of AMP produced in the reaction from the hydrolysis of cAMP was quantified using PDELight AMP Detection Reagent which converts the AMP directly to ATP. The assay uses luciferase, which catalyses the formation of light from the newly formed ATP and luciferin. The luminescence was read on a Victor Light 1420 luminometer. IC50 calculations were plotted using a nonlinear regression curve fit.

[3] = system: TNF-α production in LPS-stimulated human peripheral blood mononuclear cells; test: Inhibition of LPS-stimulated TNF-α release from PBMCs; format: cell-based; conditions: PBMC
Experimental: IC50 values were determined for representative compounds of the invention based upon their ability to inhibit LPS-induced cytokine production in human peripheral blood mononuclear cells. Human PBMCs (peripheral blood mononuclear cells) were isolated over a Ficoll gradient from buffy coats obtained from the local Red Cross. 10^6 PBMC cells/well were seeded in 24-well tissue culture plates in RPMI 1640 medium supplemented with 10% human serum, hepes buffer and sodium pyruvate. The cells were treated with 0.1% DMSO (vehicle) or test compounds (1, 10, and 100 uM) 30 minutes prior to activation with LPS (lipopolysaccharide) (E. Coli) at 10 ng/mL. 6-10 hours post LPS stimulation the culture supernatants were collected and levels of cytokines TNF-α and IL-1β were quantified by ELISA (R&D Systems) and/or Luminex (Linco Diagnostics). IC50 calculations were plotted using a nonlinear regression curve fit for exemplary substituted pyrazolo[1,5-a]pyridine compounds of the invention; results are provided in Table 2.

CC(C)C(=NOC(N)=O)c1c(-c2ccccc2)nn2ccccc12 [Compound 1017, 2-methyl-1-(2-phenylpyrazolo[1,5-a]pyridin-3-yl)propan-1-one O-carbamoyl oxime]
Mechanical Allodynia ΔWT (change from pre-dosing 50% withdrawal threshold) ([1]; 10 mg/kg IP): 0.91 grams | IC50 [2]: > 200 µM

CC(C)C(=NOC(N)=O)c1c(-c2ccc(F)cc2)nn2ccccc12 [Compound 1020, 1-(2-(4-fluorophenyl)pyrazolo[1,5-a]pyridin-3-yl)-2-methylpropan-1-one O-carbamoyl oxime]
IC50 [2]: > 200 µM

COc1ccc(-c2nn3ccccc3c2C(=O)C(C)C)cc1 [Compound 1021, 1-(2-(4-methoxyphenyl)pyrazolo[1,5-a]pyridin-3-yl)-2-methylpropan-1-one]
Mechanical Allodynia ΔWT (change from pre-dosing 50% withdrawal threshold) ([1]; 10 mg/kg IP): 0.45 grams | IC50 [2]: > 200 µM

COc1ccc(-c2nn3ccccc3c2C(=NO)C(C)C)cc1 [Compound 1022, 1-(2-(4-methoxyphenyl)pyrazolo[1,5-a]pyridin-3-yl)-2-methylpropan-1-one oxime]
Mechanical Allodynia ΔWT (change from pre-dosing 50% withdrawal threshold) ([1]; 10 mg/kg IP): 0 grams | IC50 [2]: 23.9 µM

COc1ccc(-c2nn3ccccc3c2C(=NOC(N)=O)C(C)C)cc1 [Compound 1023, 1-(2-(4-methoxyphenyl)pyrazolo[1,5-a]pyridin-3-yl)-2-methylpropan-1-one O-carbamoyl oxime]
IC50 [2]: 156 µM

CC(C)C(=O)c1c(-c2ccc(Cl)cc2)nn2ccccc12 [Compound 1024, 1-(2-(4-chlorophenyl)pyrazolo[1,5-a]pyridin-3-yl)-2-methylpropan-1-one]
Mechanical Allodynia ΔWT (change from pre-dosing 50% withdrawal threshold) ([1]; 10 mg/kg IP): 0.43 grams | IC50 [2]: 18.2 µM | IC50 ([3]; less than or equal to about 50 μM, PBMCs, read-out: IC50, LPS-induced cytokine production (cytokine not specified)): ≤ 50 µM

CC(C)C(=NO)c1c(-c2ccc(Cl)cc2)nn2ccccc12 [Compound 1025, 1-(2-(4-chlorophenyl)pyrazolo[1,5-a]pyridin-3-yl)-2-methylpropan-1-one oxime]
Mechanical Allodynia ΔWT (change from pre-dosing 50% withdrawal threshold) ([1]; 10 mg/kg IP): 0.81 grams | IC50 [2]: 23 µM

CC(C)C(=NOC(N)=O)c1c(-c2ccc(Cl)cc2)nn2ccccc12 [Compound 1026, 1-(2-(4-chlorophenyl)pyrazolo[1,5-a]pyridin-3-yl)-2-methylpropan-1-one O-carbamoyl oxime]
Mechanical Allodynia ΔWT (change from pre-dosing 50% withdrawal threshold) ([1]; 10 mg/kg IP): 1.14 grams | IC50 [2]: 27.7 µM

CC(C)c1nn2ccccc2c1C(=O)C(C)N1CCOCC1 (stereo not drawn) [Compound 1034, 1-(2-isopropylpyrazolo[1,5-a]pyridin-3-yl)-2-morpholinopropan-1-one hydrochloride]
Mechanical Allodynia ΔWT (change from pre-dosing 50% withdrawal threshold) ([1]; 10 mg/kg IP): 10 mg/kg: 1.71 grams | Mechanical Allodynia ΔWT (change from pre-dosing 50% withdrawal threshold) ([1]; 20 mg/kg IP): 20 mg/kg: 0.54 grams | IC50 [2]: 43.3 µM

CC(C)c1nn2ccccc2c1C(=O)C(C)N1CCN(C)CC1 (stereo not drawn) [Compound 1035, 1-(2-isopropylpyrazolo[1,5-a]pyridin-3-yl)-2-(4-methylpiperazin-1-yl)propan-1-one hydrochloride]
Mechanical Allodynia ΔWT (change from pre-dosing 50% withdrawal threshold) ([1]; 10 mg/kg IP): 0 grams | IC50 [2]: 198 µM

CC(C)c1nn2ccccc2c1C(=O)C(C)N1CCCCC1 (stereo not drawn) [Compound 1036, 1-(2-isopropylpyrazolo[1,5-a]pyridin-3-yl)-2-(piperidin-1-yl)propan-1-one hydrochloride]
Mechanical Allodynia ΔWT (change from pre-dosing 50% withdrawal threshold) ([1]; 10 mg/kg IP): 0 grams | IC50 [2]: > 200 µM

CC(C)c1nn2ccccc2c1C(=O)C(C)N1CCNCC1 (stereo not drawn) [Compound 1037, 1-(2-isopropylpyrazolo[1,5-a]pyridin-3-yl)-2-(piperazin-1-yl)propan-1-one hydrochloride]
Mechanical Allodynia ΔWT (change from pre-dosing 50% withdrawal threshold) ([1]; 10 mg/kg IP): 0 grams | IC50 [2]: > 200 µM

CC(C)c1nn2ccccc2c1C(=O)c1ncccc1Cl [Compound 1038, (3-chloropyridin-2-yl)(2-isopropylpyrazolo[1,5-a]pyridin-3-yl)methanone]
Mechanical Allodynia ΔWT (change from pre-dosing 50% withdrawal threshold) ([1]; 10 mg/kg IP): 0.32 grams | IC50 [2]: 26.4 µM

CC(C)c1nn2ccccc2c1C(=O)C(N)c1ccccc1 (stereo not drawn) [Compound 1039, 2-amino-1-(2-isopropylpyrazolo[1,5-a]pyridin-3-yl)-2-phenylethanone]
Mechanical Allodynia ΔWT (change from pre-dosing 50% withdrawal threshold) ([1]; 10 mg/kg IP): 0.05 grams | IC50 [2]: 8.2 µM

CCC(=O)c1c(CC)nn2ccccc12 [Compound 1040, 1-(2-ethylpyrazolo[1,5-a]pyridin-3-yl)propan-1-one]
Mechanical Allodynia ΔWT (change from pre-dosing 50% withdrawal threshold) ([1]; 10 mg/kg IP): 0.12 grams | IC50 [2]: 27.1 µM

CC(C)c1nn2ccccc2c1C(=O)C(C)N(C)Cc1ccccc1 (stereo not drawn) [Compound 1041, 2-(benzyl(methyl)amino)-1-(2-isopropylpyrazolo[1,5-a]pyridin-3-yl)propan-1-one]
Mechanical Allodynia ΔWT (change from pre-dosing 50% withdrawal threshold) ([1]; 10 mg/kg IP): 0.22 grams | IC50 [2]: 21.5 µM

CNC(C)C(=O)c1c(C(C)C)nn2ccccc12 (stereo not drawn) [Compound 1042, 1-(2-isopropylpyrazolo[1,5-a]pyridin-3-yl)-2-(methylamino)propan-1-one hydrochloride]
Mechanical Allodynia ΔWT (change from pre-dosing 50% withdrawal threshold) ([1]; 10 mg/kg IP): 10 mg/kg: 0.37 grams | Mechanical Allodynia ΔWT (change from pre-dosing 50% withdrawal threshold) ([1]; 20 mg/kg IP): 20 mg/kg: 0.22 grams | IC50 [2]: 31.9 µM

CC(C)c1nn2ccccc2c1C(NC1CC1)C(C)C (stereo not drawn) [Compound 1044, N-(1-(2-isopropylpyrazolo[1,5-a]pyridin-3-yl)-2-methylpropyl)cyclopropanamine]
Mechanical Allodynia ΔWT (change from pre-dosing 50% withdrawal threshold) ([1]; 10 mg/kg IP): 0.08 grams | IC50 [2]: > 200 µM

CC(NC1CC1)C(=O)c1c(C(C)C)nn2ccccc12 (stereo not drawn) [Compound 1045, 2-(cyclopropylamino)-1-(2-isopropylpyrazolo[1,5-a]pyridin-3-yl)propan-1-one hydrochloride]
Mechanical Allodynia ΔWT (change from pre-dosing 50% withdrawal threshold) ([1]; 10 mg/kg IP): 0 grams | IC50 [2]: 61.1 µM

CC(C)c1nn2ccccc2c1C(NCC1CC1)C(C)C (stereo not drawn) [Compound 1048, N-(cyclopropylmethyl)-1-(2-isopropylpyrazolo[1,5-a]pyridin-3-yl)-2-methylpropan-1-amine hydrochloride]
Mechanical Allodynia ΔWT (change from pre-dosing 50% withdrawal threshold) ([1]; 10 mg/kg IP): 0 grams | IC50 [2]: > 200 µM

CC(C)C(=O)c1c(C(C)(C)O)nn2ccccc12 [compound 1003, 1-(2-(2-hydroxypropan-2-yl)pyrazolo[1,5-a]pyridin-3-yl)-2-methylpropan-1-one]
Mechanical Allodynia ΔWT (change from pre-dosing 50% withdrawal threshold) ([1]; 10 mg/kg IP): 0 grams | IC50 [2]: > 100 µM

COc1ccc2c(C(=O)C(C)C)c(C(C)C)nn2c1 [compound 1005, 1-(2-isopropyl-6-methoxypyrazolo[1,5-a]pyridin-3-yl)-2-methylpropan-1-one]
Mechanical Allodynia ΔWT (change from pre-dosing 50% withdrawal threshold) ([1]; 10 mg/kg IP): 0.17 grams | IC50 [2]: 59.5 µM | IC50 ([3]; LPS-stimulated cytokine release from PBMCs, read-out: TNF-α (IC50)): 76 µM

CC(C)=Cc1c(C(C)C)nn2ccccc12 [compound 1049, 2-isopropyl-3-(2-methylprop-1-enyl)pyrazolo[1,5-a]pyridine]
Mechanical Allodynia ΔWT (change from pre-dosing 50% withdrawal threshold) ([1]; 10 mg/kg IP): 0 grams | IC50 [2]: 92.5 µM

CC(C)c1nn2ccccc2c1-c1c[nH]c(=S)[nH]1 [compound 1085, 4-(2-isopropylpyrazolo[1,5-a]pyridin-3-yl)-1H-imidazole-2(3H)-thione]
Mechanical Allodynia ΔWT (change from pre-dosing 50% withdrawal threshold) ([1]; 10 mg/kg IP): 1.93 grams

CC(C)c1nn2ccccc2c1-c1ccncc1 [compound 1103, 2-Isopropyl-3-pyridin-4-yl-pyrazolo[1,5-a]pyridine]
Mechanical Allodynia ΔWT (change from pre-dosing 50% withdrawal threshold) ([1]; 10 mg/kg IP): 1.54 grams

CC(C)Nc1nccc(-c2c(C(C)C)nn3ccccc23)n1 [compound 1137, isopropyl-[4-(2-isopropylpyrazolo[1,5-a]pyridin-3-yl)-pyrimidin-2-yl]-amine]
Mechanical Allodynia ΔWT (change from pre-dosing 50% withdrawal threshold) ([1]; 10 mg/kg IP): 3.26 grams
